Assay results as given in the supplement of paper PMC12490022.
± gives the uncertainty stated by the source.

Test system: ozone
Test: apparent second-order rate constant for reaction with ozone (kapp,O3) (M-1 s-1); higher = faster oxidation by ozone
Settings: pH 7; temperature: 22 C; OH radical scavenger: tBuOH 80 mM; phosphate 4 mM
Protocol: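 Apparent second-order rate constants for reaction with ozone at pH 7 were determined by multicompound competition kinetics. Mixtures of targets and competitors (10 ug/L each) were ozonated in 4 mM phosphate buffer, pH 7, with 80 mM tBuOH as OH-radical scavenger, at 22 ± 1 °C. Peak-area abatement was measured by HPLC-HRMS/MS and k was derived from ln-ln slopes against competitors with known k (R2 > 0.9, >= 10 points, slope 0.1-10). Experiments were run in triplicate on 3 days; the value is the mean over valid competitors ± SD.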

| Compound | apparent second-order rate constant |
| --- | --- |
| O=C(c1ccccc1)c1ccccc1 [Benzophenone] | < 0.401 |
| COc1ccc2cc(C(C)C(=O)O)ccc2c1 (centres undefined) [Naproxen] | 500000 ± 46000 |
| Cn1c(=O)[nH]c2[nH]c(=O)n(C)c2c1=O [1,7-Dimethyluric acid] | 6.6e+07 ± 1.4e+07 |
| CC(=O)Nc1ccc(OS(=O)(=O)O)cc1 [Paracetamol-sulfate] | 3.3 ± 0.3 |
| Cc1c(N)c(=O)n(-c2ccccc2)n1C [4-Aminoantipyrine] | 294000 ± 26000 |
| NC(=O)N1c2ccccc2C2OC2c2ccccc21 (centres undefined) [Carbamazepine-10,11-epoxide] | < 0.401 |
| CC(=O)Nc1ccc(O)cc1 [Paracetamol] | 2.4e+06 ± 180000 |
| CC(=O)OCC(=O)[C@@]1(O)[C@@H](C)C[C@H]2[C@@H]3CCC4=CC(=O)C=C[C@]4(C)[C@@]3(F)[C@@H](O)C[C@@]21C [Betamethasone-21-acetate] | 24.4 ± 1.3 |
| C#CCN(C)C(C)Cc1ccccc1 (centres undefined) [Deprenyl] | 930000 ± 81000 |
| CCCCc1nc(Cl)c(CO)n1Cc1ccc(-c2ccccc2-c2nn[nH]n2)cc1 [Losartan] | 198000 ± 16000 |
| Cc1ccnc2c1NC(=O)c1cccnc1N2C1CC1 [Nevirapine] | 86 ± 9 |
| COc1ccc(C(C[N+](C)(C)[O-])C2(O)CCCCC2)cc1 (centres undefined) [Venlafaxine-N-oxide] | 168 ± 8.7 |
| CC(C)c1c(C(=O)Nc2ccc(O)cc2)c(-c2ccccc2)c(-c2ccc(F)cc2)n1CCC(O)CC(O)CC(=O)O (centres undefined) [para-Hydroxyatorvastatin] | 6.6e+07 ± 1.4e+07 |
| C/C(=C\Cc1c(O)c(C)c2c(c1O)C(=O)OC2)CCC(=O)O [6-O-Desmethyl mycophenolic acid] | 9.2e+07 ± 2e+07 |
| CNCC(O)c1cccc(O)c1 (centres undefined) [Phenylephrine] | 158000 ± 7000 |
| CC[N+]1([O-])CCCC1CNC(=O)c1cc(S(=O)(=O)CC)c(N)cc1OC (centres undefined) [Amisulpride-N-oxide] | 1190 ± 100 |
| CC12C=CC(=O)C=C1CCC1C2C(O)CC2(C)C1CCC2(O)C(=O)CO (centres undefined) [Prednisolone] | 104 ± 5.6 |
| CC(N)C(O)c1ccccc1 (centres undefined) [Norephedrine] | 45.5 ± 2.3 |
| C[C@H](C[C@@H](Cc1ccc(-c2ccccc2)cc1)NC(=O)CCC(=O)O)C(=O)O [Sacubitrilat (LBQ657)] | 16.7 ± 1.8 |
| CC(C)OC(=O)C(C)(C)Oc1ccc(C(=O)c2ccc(Cl)cc2)cc1 [Fenofibrate] | 1.27 ± 0.17 |
| Cc1cc(=O)[nH]c2c1NC(=O)c1cccnc1N2C1CC1 [2-Hydroxynevirapine] | 1.56e+07 ± 1.2e+06 |
| Nc1nc(NC2CC2)c2ncn(C3C=CC(CO)C3)c2n1 (centres undefined) [Abacavir] | 8.8e+06 ± 600000 |

| Compound | apparent second-order rate constant |
| --- | --- |
| N[C@@H](Cc1cc(I)c(O)c(I)c1)C(=O)O [3,5-Diiodo-L-tyrosine] | 2.87e+06 ± 220000 |
| CC[C@H]1OC(=O)[C@H](C)[C@@H](O[C@H]2C[C@@](C)(OC)[C@@H](O)[C@H](C)O2)[C@H](C)[C@@H](O[C@@H]2O[C@H](C)C[C@H]([N+](C)(C)[O-])[C@H]2O)[C@](C)(O)C[C@@H](C)CN(C)[C@H](C)[C@@H](O)[C@]1(C)O [Azithromycin-N-oxide] | 1150 ± 74 |
| Nc1ccc(S(=O)(=O)Nc2ccc(O)cn2)cc1 [5-Hydroxysulfapyridine] | 1.6e+08 ± 3e+07 |
| CCOC(=O)c1c(COCCN)nc(C)c(C(=O)OC)c1-c1ccccc1Cl [Dehydroamlodipine] | 55 ± 2.9 |
| NC1(c2ccccc2Cl)CCCCC1=O (centres undefined) [Norketamine] | 37.5 ± 2.5 |
| c1ccc2c(c1)Cc1ccccc1N1CCNCC21 (centres undefined) [Normianserin] | 570000 ± 48000 |
| Cc1cc(N(C2OC(C(=O)O)C(O)C(O)C2O)S(=O)(=O)c2ccc(N)cc2)no1 (centres undefined) [Sulfamethoxazole-N1-glucuronide] | 37000 ± 8000 |
| COC(=O)C1C(OC(=O)c2ccccc2)CC2CCC1N2C (centres undefined) [Cocaine] | 3020 ± 260 |
| Nc1nc(N)[n+]([C@@H]2O[C@H](C(=O)O)[C@@H](O)[C@H](O)[C@H]2O)nc1-c1cccc(Cl)c1Cl [Lamotrigine-N2-glucuronide] | 371 ± 20 |
| Clc1ccc(C(c2ccccc2)N2CCNCC2)cc1 (centres undefined) [1-(4-Chlorobenzhydryl)piperazine] | 7700 ± 630 |
| CN1CCN2c3ncccc3Cc3ccccc3C2C1 (centres undefined) [Mirtazapine] | 957000 ± 81000 |
| CC(=O)Nc1c(I)c(NC(C)=O)c(I)c(C(=O)O)c1I [Diatrizoate] | 230 ± 30 |
| Cc1ccc(C(=O)C(C)CN2CCCCC2)cc1 (centres undefined) [Tolperisone] | 17400 ± 1700 |
| Cc1cccc(Nc2ccncc2S(=O)(=O)NC(=O)NC(C)C)c1 [Torasemide] | 2990 ± 260 |
| NS(=O)(=O)c1cc2c(cc1Cl)NC=NS2(=O)=O [Chlorothiazide] | 1.57 ± 0.17 |
| Nc1ccc(S(=O)(=O)Nc2ccccn2)cc1 [Sulfapyridine] | 537000 ± 180000 |
| O=C(O)Cc1cc(O)ccc1Nc1c(Cl)cccc1Cl [5-Hydroxydiclofenac] | 6.4e+07 ± 1.4e+07 |
| COC(=O)C(C)c1ccc2cc(OC)ccc2c1 (centres undefined) [Naproxen methyl ester] | 278000 ± 25000 |
| CC(=O)Nc1ccc(S(=O)(=O)Nc2ncccn2)cc1 [N4-Acetylsulfadiazine] | 89 ± 4.9 |
| N#Cc1ccc2c(c1)COC2(CCCN)c1ccc(F)cc1 (centres undefined) [N-Didesmethylcitalopram] | 34.3 ± 2.1 |
| Cc1c(CO)cccc1Nc1ccccc1C(=O)O [3-Hydroxymethylmefenamic acid] | 9.3e+07 ± 2e+07 |
| CC(=O)Nc1ccc(S(=O)(=O)Nc2nccs2)cc1 [N4-Acetylsulfathiazole] | 1.02e+07 ± 1.2e+06 |

| Compound | apparent second-order rate constant |
| --- | --- |
| COc1c(CSc2nc3ccc(OC(F)F)cc3[nH]2)[nH]ccc1=O [4'-O-Demethyl-pantoprazole sulfide] | 21000 ± 2000 |
| Oc1ccc(C(c2ccc(O)cc2)c2ccccn2)cc1 [Desacetylbisacodyl] | 2.25e+06 ± 220000 |
| COc1ccc(C(CN(C)C)C2(O)CCCCC2)cc1 (centres undefined) [Venlafaxine] | 3440 ± 260 |
| Cc1cc(C)nc(NS(=O)(=O)c2ccc(N)cc2)n1 [Sulfamethazine] | 933000 ± 81000 |
| CC(CN1c2ccccc2CCc2ccccc21)C[N+](C)(C)[O-] (centres undefined) [Trimipramine-N-oxide] | 4.8e+06 ± 300000 |
| COCC(=O)Nc1c(I)c(C(=O)NCC(O)CO)c(I)c(C(=O)N(C)CC(O)CO)c1I (centres undefined) [Iopromide] | 2.14 ± 0.23 |
| CN1CCN2c3ncc(O)cc3Cc3ccccc3C2C1 (centres undefined) [8-Hydroxymirtazapine] | 5.4e+07 ± 1.2e+07 |
| O=C(O)Cc1ccccc1Nc1c(Cl)cc(O)cc1Cl [4'-Hydroxydiclofenac] | 6.95 ± 0.38 |
| COc1ccc2c3c1OC1C(O)C=CC4C(C2)NCCC341 (centres undefined) [Norcodeine] | 2.68e+06 ± 51000 |
| CCC(C(=O)O)N1CCCC1=O (centres undefined) [Levetiracetam acid] | 0.66 ± 0.08 |
| CNC(C)C(O)c1ccccc1 (centres undefined) [Pseudoephedrine] | 1370 ± 110 |
| CC(C)c1c(C(=O)Nc2ccccc2O)c(-c2ccccc2)c(-c2ccc(F)cc2)n1CCC(O)CC(O)CC(=O)O (centres undefined) [ortho-Hydroxyatorvastatin] | 1.8e+08 ± 4e+07 |
| CC12CCC(=O)C=C1CCC1C2C(=O)CC2(C)C1CCC2(O)C(=O)CO (centres undefined) [Cortisone] | 436 ± 22 |
| CC(C)NC(=O)NS(=O)(=O)c1cnccc1Nc1cccc(C(=O)O)c1 [Torasemide carboxylic acid] | 214 ± 10 |
| CNCCC(Oc1ccc(C(F)(F)F)cc1)c1ccccc1 (centres undefined) [Fluoxetine] | 1720 ± 50 |
| CC(NC(C)(C)C)C(=O)c1cccc(Cl)c1 (centres undefined) [Bupropion] | 315 ± 15 |
| CC(C)(C(=O)O)c1ccc(C(O)CCCN2CCC(C(O)(c3ccccc3)c3ccccc3)CC2)cc1 (centres undefined) [Fexofenadine] | 2950 ± 260 |
| CC(C)(C(=O)O)c1ccc(C(O)CCC[N+]2([O-])CCC(C(O)(c3ccccc3)c3ccccc3)CC2)cc1 (centres undefined) [Fexofenadine-N-oxide] | 11.9 ± 1.3 |
| CC(C)NCC(O)COc1cccc2ccccc12 (centres undefined) [Propanolol] | 174000 ± 16000 |
| COc1ccc2c(c1)C13CCCCC1C(C2)N(C)CC3 (centres undefined) [Dextromethorphan] | 5580 ± 96 |
